Source: EP0385679B1, “Heterocyclic cyclic ethers with inhibitory activity on 5-lipoxygenase” (ZENECA LIMITED, priority 1989, dated 1990)
pIC50: −log10 of the molar value.

How the values were obtained:
cyclooxygenase = target: T1, cyclooxygenase (Homo sapiens, UniProt P23219); assay: Test b): heparinised human blood challenged with A23187, radioimmunoassay of TxB₂; format: cell-based; details: heparinised human blood, calcium ionophore A23187 challenge; read-out: IC₅₀ against TxB₂ in test b)
T1 construct: may be measured at the same time using the specific radioimmunoassay for thromboxane B₂(TxB₂); endogenous in cells; host or cells: human whole blood (heparinised), blood cells
Procedure: (§1) As stated previously, the heterocyclic cyclic ethers of the formula I are inhibitors of the enzyme 5-LO. […] This test provides a measure of the intrinsic inhibitory properties against soluble 5-LO in an extracellular environment. • b) An in vitro assay system involving incubating a test compound with heparinised human blood, prior to challenge with the calcium ionophore A23187 and then indirectly measuring the inhibitory effects on 5-LO by assaying the amount of LTB₄ using the specific radioimmunoassay described by Carey and Forder (F. Carey and R.A. Forder, Brit. […] The effects of a test compound on the enzyme cyclooxygenase (which is involved in the alternative metabolic pathway for arachidonic acid and gives rise to prostaglandins, thromboxanes and related metabolites) may be measured at the same time using the specific radioimmunoassay for thromboxane B₂(TxB₂) described by Carey and Forder (see above). […] It permits the selectivity of the inhibitory effect on 5-LO or cyclooxygenase to be assessed. • c) An ex vivo assay system, which is a variation of test b) above, involving administration of a test compound (usually orally as the suspension produced when a solution of the test compound in dimethylsulphoxide is added to carboxymethylcellulose), blood collection, heparinisation, challenge with A23187 and radioimmunoassay of LTB₄ and TxB₂. […]

5-LO = target: T2, 5-LO (Homo sapiens, UniProt P09917); assay: Test b): heparinised human blood challenged with A23187, radioimmunoassay of LTB₄; format: cell-based; details: heparinised human blood, calcium ionophore A23187 challenge; read-out: IC₅₀ against LTB₄ in test b)
T2 construct: incubating a test compound with heparinised human blood, prior to challenge with the calcium ionophore A23187; endogenous in cells; host or cells: human whole blood (heparinised), blood cells
T2 sequence (P09917 1-674): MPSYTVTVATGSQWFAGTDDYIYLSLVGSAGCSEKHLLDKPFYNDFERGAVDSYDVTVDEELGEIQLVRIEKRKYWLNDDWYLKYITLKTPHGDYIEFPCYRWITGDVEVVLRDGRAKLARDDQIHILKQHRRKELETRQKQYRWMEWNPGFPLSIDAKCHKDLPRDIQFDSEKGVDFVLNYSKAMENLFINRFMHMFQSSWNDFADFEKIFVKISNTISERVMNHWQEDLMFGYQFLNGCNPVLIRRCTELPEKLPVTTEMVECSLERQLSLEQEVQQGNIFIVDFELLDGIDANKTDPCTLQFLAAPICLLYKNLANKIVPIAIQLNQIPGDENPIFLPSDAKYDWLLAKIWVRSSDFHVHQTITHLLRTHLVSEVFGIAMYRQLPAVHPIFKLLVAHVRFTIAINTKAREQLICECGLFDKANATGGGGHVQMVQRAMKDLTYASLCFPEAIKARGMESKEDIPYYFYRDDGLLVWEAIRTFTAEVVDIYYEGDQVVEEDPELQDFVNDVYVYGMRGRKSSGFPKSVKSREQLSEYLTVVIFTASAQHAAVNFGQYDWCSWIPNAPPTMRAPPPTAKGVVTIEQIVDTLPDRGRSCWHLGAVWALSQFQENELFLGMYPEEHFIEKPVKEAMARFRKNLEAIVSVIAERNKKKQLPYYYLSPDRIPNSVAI
Procedure: as §1

T1 sequence (P23219 24-599): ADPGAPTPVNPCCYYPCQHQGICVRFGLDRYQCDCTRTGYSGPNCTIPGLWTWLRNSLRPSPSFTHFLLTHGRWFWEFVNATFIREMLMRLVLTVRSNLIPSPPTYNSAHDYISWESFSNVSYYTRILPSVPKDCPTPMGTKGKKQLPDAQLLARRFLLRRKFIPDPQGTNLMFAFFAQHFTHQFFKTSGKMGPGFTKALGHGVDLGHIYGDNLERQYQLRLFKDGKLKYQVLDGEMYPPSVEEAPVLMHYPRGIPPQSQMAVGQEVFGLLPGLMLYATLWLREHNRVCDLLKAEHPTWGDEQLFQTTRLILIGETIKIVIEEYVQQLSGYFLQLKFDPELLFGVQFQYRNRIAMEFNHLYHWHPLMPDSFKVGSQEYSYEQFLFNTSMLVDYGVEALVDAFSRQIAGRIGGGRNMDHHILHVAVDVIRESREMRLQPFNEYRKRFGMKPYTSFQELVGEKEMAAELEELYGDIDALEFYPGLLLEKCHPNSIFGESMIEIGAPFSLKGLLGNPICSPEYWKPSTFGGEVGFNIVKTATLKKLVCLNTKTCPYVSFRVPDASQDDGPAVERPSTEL

SMILES	pIC50 (cyclooxygenase)	pIC50 (5-LO)
CCC1(c2cccc(OCC#Cc3ccccn3)c2)COC(C)(C)O1 (stereo not drawn) [2,2-dimethyl-4-ethyl-4-[3-(3-(2-pyridyl)prop-2-yn-1-yloxy)phenyl]-1,3-dioxolane]	< 4.40	6.10
CCC1(c2cc(F)cc(OCc3ccc4c(ccc(=O)n4C)c3)c2)COC(C)(C)O1 (stereo not drawn) [4-ethyl-4-[5-fluoro-3-(1,2-dihydro-1-methyl-2-oxoquinolin-6-ylmethoxy)phenyl]-2,2-dimethyl-1,3-dioxolane]		7.10
